Reference: ChEMBL document CHEMBL2440112, “Structure-activity relationships of the aromatic site in novel anticonvulsant pyrrolo[1,2-a]pyrazine derivatives” (Bioorg Med Chem Lett, 2013)
Calls of active or inactive are those of the source. The rule behind the calls is not given here.

Experiments:
Mus musculus [1] = assay: Neurotoxicity in albino mouse assessed as minimal motor impairment at 100 mg/kg, ip after 0.5 hrs by rotorod test; format: toxicity, organism-based; parameters: dose 100 mg/kg, route intraperitoneal; conditions: in vivo
Mus musculus [2] = assay: Anticonvulsant activity in albino mouse assessed as protection against subcutaneous metrazole-induced seizures at 100 mg/kg, ip after 4 hrs; format: functional, organism-based; parameters: dose 100 mg/kg
Mus musculus [3] = assay: Neurotoxicity in albino mouse assessed as minimal motor impairment at 100 mg/kg, ip after 4 hrs by rotorod test; format: toxicity, organism-based; parameters: dose 100 mg/kg, route intraperitoneal; conditions: in vivo
Mus musculus [4] = assay: Anticonvulsant activity in albino mouse assessed as protection against maximal electroshock-induced seizures at 100 mg/kg, ip after 0.25 hrs; format: functional, organism-based; parameters: dose 100 mg/kg
Mus musculus [5] = assay: Anticonvulsant activity in albino mouse assessed as protection against maximal electroshock-induced seizures at 100 mg/kg, ip after 0.5 hrs; format: functional, organism-based; parameters: dose 100 mg/kg
Mus musculus [6] = assay: Anticonvulsant activity in albino mouse assessed as protection against maximal electroshock-induced seizures at 100 mg/kg, ip after 1 hr; format: functional, organism-based; parameters: dose 100 mg/kg
Mus musculus [7] = assay: Anticonvulsant activity in albino mouse assessed as protection against subcutaneous metrazole-induced seizures at 100 mg/kg, ip after 0.5 hrs; format: functional, organism-based; parameters: dose 100 mg/kg
Mus musculus [8] = assay: Neurotoxicity in albino mouse assessed as minimal motor impairment at 100 mg/kg, ip after 1 hr by rotorod test; format: toxicity, organism-based; parameters: dose 100 mg/kg, route intraperitoneal; conditions: in vivo
Mus musculus [9] = assay: Anticonvulsant activity in albino mouse assessed as protection against maximal electroshock-induced seizures at 100 mg/kg, ip after 4 hrs; format: functional, organism-based; parameters: dose 100 mg/kg
Rattus norvegicus [10] = assay: Anticonvulsant activity in po dosed albino Sprague-Dawley rat assessed as protection against maximal electroshock-induced seizures after […] to 4 hrs; format: functional, organism-based
Mus musculus [11] = assay: Neurotoxicity in albino mouse assessed as minimal motor impairment at 100 mg/kg, ip after 0.25 hrs by rotorod test; format: toxicity, organism-based; parameters: dose 100 mg/kg, route intraperitoneal; conditions: in vivo
Mus musculus [12] = assay: Toxicity in subcutaneous metrazole treated albino mouse assessed as myoclonic jerks at 100 mg/kg, ip after 0.5 hrs; format: organism-based; parameters: dose 100 mg/kg; conditions: in vivo, sc
Mus musculus [13] = assay: Anticonvulsant activity in albino mouse assessed as protection against 6 Hz psychomotor seizure at 100 mg/kg, ip after 2 hrs by minimal clonic seizure test; format: functional, organism-based; parameters: dose 100 mg/kg
Mus musculus [14] = assay: Neurotoxicity in albino mouse minimal clonic seizure model assessed as minimal motor impairment at 100 mg/kg, ip after 0.5 hrs by rotorod test; format: toxicity, organism-based; parameters: dose 100 mg/kg, route intraperitoneal; conditions: in vivo
Mus musculus [15] = assay: Anticonvulsant activity in albino mouse assessed as protection against 6 Hz psychomotor seizure at 100 mg/kg, ip after 4 hrs by minimal clonic seizure test; format: functional, organism-based; parameters: dose 100 mg/kg
Mus musculus [16] = assay: Anticonvulsant activity in albino mouse assessed as protection against 6 Hz psychomotor seizure at 100 mg/kg, ip after 1 hr by minimal clonic seizure test; format: functional, organism-based; parameters: dose 100 mg/kg
Mus musculus [17] = assay: Anticonvulsant activity in albino mouse assessed as protection against subcutaneous metrazole-induced seizures at 100 mg/kg, ip after 1 hr; format: functional, organism-based; parameters: dose 100 mg/kg
Mus musculus [18] = assay: Neurotoxicity in albino mouse minimal clonic seizure model assessed as minimal motor impairment at 100 mg/kg, ip after 1 hr by rotorod test; format: toxicity, organism-based; parameters: dose 100 mg/kg, route intraperitoneal; conditions: in vivo
Mus musculus [19] = assay: Neurotoxicity in albino mouse minimal clonic seizure model assessed as loss of righting reflex at 100 mg/kg, ip after 0.25 hrs by rotorod test; format: toxicity, organism-based; parameters: dose 100 mg/kg, route intraperitoneal; conditions: in vivo
Mus musculus [20] = assay: Neurotoxicity in albino mouse minimal clonic seizure model assessed as minimal motor impairment at 100 mg/kg, ip after 2 hrs by rotorod test; format: toxicity, organism-based; parameters: dose 100 mg/kg, route intraperitoneal; conditions: in vivo
Mus musculus [21] = assay: Anticonvulsant activity in albino mouse assessed as protection against subcutaneous metrazole-induced seizures at 100 mg/kg, ip after 0.25 hrs; format: functional, organism-based; parameters: dose 100 mg/kg
Mus musculus [22] = assay: Anticonvulsant activity in albino mouse assessed as protection against 6 Hz psychomotor seizure at 100 mg/kg, ip after 0.25 hrs by minimal clonic seizure test; format: functional, organism-based; parameters: dose 100 mg/kg
Mus musculus [23] = assay: Neurotoxicity in albino mouse minimal clonic seizure model assessed as minimal motor impairment at 100 mg/kg, ip after 4 hrs by rotorod test; format: toxicity, organism-based; parameters: dose 100 mg/kg, route intraperitoneal; conditions: in vivo
Mus musculus [24] = assay: Neurotoxicity in albino mouse minimal clonic seizure model assessed as minimal motor impairment at 100 mg/kg, ip after 0.25 hrs by rotorod test; format: toxicity, organism-based; parameters: dose 100 mg/kg, route intraperitoneal; conditions: in vivo
Mus musculus [25] = assay: Anticonvulsant activity in albino mouse assessed as protection against 6 Hz psychomotor seizure at 100 mg/kg, ip after 0.5 hrs by minimal clonic seizure test; format: functional, organism-based; parameters: dose 100 mg/kg
Mus musculus [26] = assay: Anticonvulsant activity in albino mouse assessed as protection against subcutaneous metrazole-induced seizures at 300 mg/kg, ip after 0.5 hrs; format: functional, organism-based; parameters: dose 300 mg/kg
Rattus norvegicus [27] = assay: Anticonvulsant activity in albino Sprague-Dawley rat assessed as protection against maximal electroshock-induced seizures at 30 mg/kg, ip after 2 hrs; format: functional, organism-based; parameters: dose 30 mg/kg
Rattus norvegicus [28] = assay: Neurotoxicity in albino Sprague-Dawley rat assessed as minimal motor impairment at 30 mg/kg, ip after 1 hr by rotorod test; format: toxicity, organism-based; parameters: dose 30 mg/kg, route intraperitoneal; conditions: in vivo
Rattus norvegicus [29] = assay: Neurotoxicity in albino Sprague-Dawley rat assessed as minimal motor impairment at 30 mg/kg, ip after 0.5 hrs by rotorod test; format: toxicity, organism-based; parameters: dose 30 mg/kg, route intraperitoneal; conditions: in vivo
Rattus norvegicus [30] = assay: Anticonvulsant activity in albino Sprague-Dawley rat assessed as protection against maximal electroshock-induced seizures at 30 mg/kg, ip after 1 hr; format: functional, organism-based; parameters: dose 30 mg/kg
Rattus norvegicus [31] = assay: Neurotoxicity in albino Sprague-Dawley rat assessed as minimal motor impairment at 30 mg/kg, ip after 4 hrs by rotorod test; format: toxicity, organism-based; parameters: dose 30 mg/kg, route intraperitoneal; conditions: in vivo
Rattus norvegicus [32] = assay: Anticonvulsant activity in albino Sprague-Dawley rat assessed as protection against maximal electroshock-induced seizures at 30 mg/kg, ip after 0.5 hrs; format: functional, organism-based; parameters: dose 30 mg/kg
Rattus norvegicus [33] = assay: Neurotoxicity in albino Sprague-Dawley rat assessed as minimal motor impairment at 30 mg/kg, ip after 0.25 hrs by rotorod test; format: toxicity, organism-based; parameters: dose 30 mg/kg, route intraperitoneal; conditions: in vivo
Rattus norvegicus [34] = assay: Anticonvulsant activity in albino Sprague-Dawley rat assessed as protection against maximal electroshock-induced seizures at 30 mg/kg, ip after 4 hrs; format: functional, organism-based; parameters: dose 30 mg/kg
Rattus norvegicus [35] = assay: Neurotoxicity in albino Sprague-Dawley rat assessed as minimal motor impairment at 30 mg/kg, ip after 2 hrs by rotorod test; format: toxicity, organism-based; parameters: dose 30 mg/kg, route intraperitoneal; conditions: in vivo
Rattus norvegicus [36] = assay: Anticonvulsant activity in albino Sprague-Dawley rat assessed as protection against maximal electroshock-induced seizures at 30 mg/kg, ip after 0.25 hrs; format: functional, organism-based; parameters: dose 30 mg/kg
[37] = Neurotoxicity in ip dosed albino mouse minimal clonic seizure model assessed as minimal motor impairment by rotorod test; format: toxicity, organism-based; conditions: in vivo
Mus musculus [38] = assay: Anticonvulsant activity in ip dosed albino mouse assessed as protection against 6 Hz psychomotor seizure by minimal clonic seizure test; format: functional
Rattus norvegicus [39] = assay: Toxicity in albino Sprague-Dawley rat pilocarpine-induced status prevention model assessed as weight change in protected animal at 200 mg/kg, ip administered 30 mins before pilocarpine challenge; format: organism-based; parameters: dose 200 mg/kg, route intraperitoneal; conditions: in vivo, 0.5 h
Rattus norvegicus [40] = assay: Anticonvulsant activity in albino Sprague-Dawley rat pilocarpine-induced status prevention model by measuring post-first stage 3 seizure at 200 mg/kg, ip administered 30 mins before pilocarpine challenge; format: functional, organism-based; parameters: dose 200 mg/kg
Rattus norvegicus [41] = assay: Toxicity in albino Sprague-Dawley rat pilocarpine-induced status prevention model assessed as weight change in non-protected animal at 200 mg/kg, ip followed by immediately administered pilocarpine; format: organism-based; parameters: dose 200 mg/kg, route intraperitoneal; conditions: in vivo
Mus musculus [42] = assay: Anticonvulsant activity in ip dosed albino mouse assessed as time of peak effect for protection against 6 Hz psychomotor seizure by minimal clonic seizure test; format: functional
Rattus norvegicus [43] = assay: Toxicity in albino Sprague-Dawley rat pilocarpine-induced status prevention model assessed as weight change in non-protected animal at 200 mg/kg, ip administered 30 mins before pilocarpine challenge; format: organism-based; parameters: dose 200 mg/kg, route intraperitoneal; conditions: in vivo, 0.5 h
Rattus norvegicus [44] = assay: Anticonvulsant activity in albino Sprague-Dawley rat pilocarpine-induced status prevention model by measuring post-first stage 3 seizure at 200 mg/kg, ip followed by immediately administered pilocarpine; format: functional, organism-based; parameters: dose 200 mg/kg
Mus musculus [45] = species on record: Mus musculus; assay: Protective index, ratio of TD50 for albino mouse minimal clonic seizure model to ED50 for albino mouse assessed as protection against 6 Hz psychomotor seizure; format: functional
Rattus norvegicus [46] = assay: Toxicity in albino Sprague-Dawley rat pilocarpine-induced status prevention model assessed as weight change in protected animal at 200 mg/kg, ip followed by immediately administered pilocarpine; format: organism-based; parameters: dose 200 mg/kg, route intraperitoneal; conditions: in vivo

Compound	Activity (Mus musculus [1])	Activity (Mus musculus [2])	Activity (Mus musculus [3])	Activity (Mus musculus [4])	Activity (Mus musculus [5])	Activity (Mus musculus [6])	Activity (Mus musculus [7])	Activity (Mus musculus [8])	Activity (Mus musculus [9])	Activity (Rattus norvegicus [10])	Activity (Mus musculus [11])	Activity (Mus musculus [13])	Activity (Mus musculus [14])	Activity (Mus musculus [15])	Activity (Mus musculus [16])	Activity (Mus musculus [17])	Activity (Mus musculus [18])	Activity (Mus musculus [20])	Activity (Mus musculus [22])	Activity (Mus musculus [25])	also measured
O=C1NC(=O)[C@@H]2CCCN2[C@H]1c1ccc(Cl)c(Cl)c1	Non-toxic	inactive	Non-toxic	inactive	inactive	inactive	Active	Non-toxic	inactive	inactive	Non-toxic	–	–	–	–	–	–	–	–	–	Activity (Mus musculus [12]): Toxic
O=C1NC(=O)[C@@H]2CCCN2[C@H]1c1cccc(Cl)c1	Non-toxic	inactive	Non-toxic	Active	Active	Active	inactive	Non-toxic	inactive	inactive	Toxic	inactive	Toxic	inactive	Active	inactive	Non-toxic	Non-toxic	Active	Active	Activity (Mus musculus [19]): Toxic; Activity (Mus musculus [21]): Active; Activity (Mus musculus [23]): Non-toxic; Activity (Mus musculus [24]): Toxic
Cl.O=C1NC(=O)[C@@H]2CCCN2[C@H]1c1ccccc1Cl	Non-toxic	inactive	Non-toxic	inactive	inactive	inactive	inactive	Non-toxic	inactive	inactive	Non-toxic	–	–	–	–	–	–	–	–	–	Activity (Mus musculus [26]): Active
Cc1cccc([C@H]2C(=O)NC(=O)[C@@H]3CCCN23)c1	Non-toxic	inactive	Non-toxic	Active	Active	inactive	inactive	Non-toxic	inactive	inactive	Toxic	inactive	Non-toxic	inactive	inactive	inactive	Non-toxic	Non-toxic	Active	Active	Activity (Rattus norvegicus [27]): inactive; Activity (Rattus norvegicus [28]): Non-toxic; Activity (Rattus norvegicus [29]): Non-toxic; Activity (Rattus norvegicus [30]): inactive; Activity (Rattus norvegicus [31]): Non-toxic; Activity (Mus musculus [21]): Active; Activity (Rattus norvegicus [32]): inactive; Activity (Rattus norvegicus [33]): Non-toxic; Activity (Mus musculus [23]): Non-toxic; Activity (Rattus norvegicus [34]): inactive; Activity (Rattus norvegicus [35]): Non-toxic; Activity (Mus musculus [24]): Toxic; Activity (Rattus norvegicus [36]): inactive
O=C1NC(=O)[C@@H]2CCCN2[C@H]1c1ccc(Cl)cc1	Non-toxic	inactive	Non-toxic	Active	inactive	inactive	inactive	Non-toxic	inactive	inactive	Non-toxic	Active	–	inactive	Active	–	–	–	Active	Active	Activity (Rattus norvegicus [27]): inactive; Activity (Rattus norvegicus [28]): Non-toxic; TD50 [37]: 212 mg/kg; ED50 (Mus musculus [38]): 32.2 mg/kg; Activity (Rattus norvegicus [39]): -30 g; Activity (Rattus norvegicus [29]): Non-toxic; Activity (Rattus norvegicus [40]): inactive; Activity (Rattus norvegicus [41]): 15 g; Activity (Rattus norvegicus [30]): inactive; Activity (Rattus norvegicus [31]): Non-toxic; Time (Mus musculus [42]): 0.25 h; Activity (Rattus norvegicus [32]): Active; Activity (Rattus norvegicus [43]): -31.4 g; Activity (Rattus norvegicus [44]): Active; Activity (Rattus norvegicus [33]): Non-toxic; Activity (Rattus norvegicus [34]): inactive; Ratio TD50/ED50 (Mus musculus [45]): 6.6; Activity (Rattus norvegicus [35]): Non-toxic; Activity (Rattus norvegicus [46]): -3.6 g; Activity (Rattus norvegicus [36]): Active
